Structures can show the parent of a compound that is named as a salt. Where two headings read alike, the source gives them in different places.
Tests used:
mouse TAAR1 = mouse TAAR1 (Mus musculus (Mouse), UniProt Q923Y8); assay: Radioligand binding assay on mouse TAAR1; conditions: read-out: Ki (μM) mouse
Outline: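 Displacement of the tritiated oxazol-2-ylamine radioligand was measured by filtration and scintillation counting after 1 h incubation at 4 °C. Test concentrations ran 10 pM–10 μM in duplicate, with 10 μM cold ligand giving nonspecific binding. The receptor source was membranes of a stable mouse TAAR1 HEK293 line.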

rat TAAR1 = rat TAAR1 (Rattus norvegicus (Rat), UniProt Q923Y9); assay: Radioligand binding assay on rat TAAR1; conditions: read-out: Ki (μM) rat
Outline: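 Membranes from HEK293 cells stably expressing rat TAAR1, with Kd checked per batch by saturation. Competition with ³H-(S)-4-[(ethyl-phenyl-amino)-methyl]-4,5-dihydro-oxazol-2-ylamine, compounds 10 pM–10 μM in duplicate, 1 hr at 4 °C. Filtration then scintillation counting; nonspecific binding defined with 10 μM unlabeled ligand.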

[1] = rat TAAR1, HEK-293 membranes, second value of cell mouse/rat
[2] = mouse TAAR1, HEK-293 membranes, first value of cell mouse/rat

Sequence of rat TAAR1 (Q923Y9 whole entry): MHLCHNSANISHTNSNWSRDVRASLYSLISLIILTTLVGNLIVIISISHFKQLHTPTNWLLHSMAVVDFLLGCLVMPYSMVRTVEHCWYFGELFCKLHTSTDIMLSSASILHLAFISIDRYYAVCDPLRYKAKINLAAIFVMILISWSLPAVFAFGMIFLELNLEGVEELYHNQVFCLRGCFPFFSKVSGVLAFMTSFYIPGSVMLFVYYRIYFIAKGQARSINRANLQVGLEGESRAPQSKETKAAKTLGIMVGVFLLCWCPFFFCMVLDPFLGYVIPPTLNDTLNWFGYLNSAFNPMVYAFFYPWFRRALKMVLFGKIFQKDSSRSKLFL
Sequence of mouse TAAR1 (Q923Y8 whole entry): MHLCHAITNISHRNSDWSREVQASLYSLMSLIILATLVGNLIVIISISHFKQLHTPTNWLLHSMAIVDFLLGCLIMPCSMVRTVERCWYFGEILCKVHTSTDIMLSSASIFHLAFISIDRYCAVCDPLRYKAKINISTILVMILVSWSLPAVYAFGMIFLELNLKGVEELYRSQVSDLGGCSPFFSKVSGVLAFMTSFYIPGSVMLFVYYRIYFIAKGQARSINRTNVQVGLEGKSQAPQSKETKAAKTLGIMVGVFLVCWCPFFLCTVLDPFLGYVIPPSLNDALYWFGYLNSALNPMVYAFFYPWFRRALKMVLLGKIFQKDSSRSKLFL

Row | SMILES | Ki (mouse TAAR1) [µM] | Ki (rat TAAR1; [1]) [µM] | Ki (mouse TAAR1; [2]) [µM] | Ki (rat TAAR1) [µM]
1 | O=C(Nc1ccc(C2CNCCO2)cc1)c1cnc(-c2ccccc2)s1 (racemic) [Example 231, (RS)—N-(4-(Morpholin-2-yl)phenyl)-2-phenylthiazole-5-carboxamide hydrochloride] | 0.0043 | 0.0014 |  | 
2 | O=C(Nc1ccc(C2CNCCO2)cc1)c1ccc(OC2CCOCC2)nc1 (racemic) [Example 232, (RS)—N-(4-(Morpholin-2-yl)phenyl)-6-(tetrahydro-2H-pyran-4-yloxy)nicotinamide hydrochloride] |  | 0.0317 | 0.15 | 
3 | O=C(Nc1ccc(C2CNCCO2)cc1)c1csc(-c2ccccc2)n1 (racemic) [Example 233, (RS)—N-(4-(Morpholin-2-yl)phenyl)-2-phenylthiazole-4-carboxamide hydrochloride] |  | 0.0014 | 0.0008 | 
4 | O=C(Nc1ccc(C2CNCCO2)cc1)c1ccc(N2CCOCC2)nc1 (racemic) [Example 241, (RS)—N-(4-(Morpholin-2-yl)phenyl)-6-morpholinonicotinamide hydrochloride] |  | 0.116 | 1.55 | 
5 | CCOc1ccc(C(=O)Nc2ccc(C3CNCCO3)cc2)cn1 (racemic) [Example 245, (RS)-6-Ethoxy-N-(4-(morpholin-2-yl)phenyl)nicotinamide hydrochloride] |  | 0.0063 | 0.0649 | 
6 | O=C(Nc1ccc(C2CNCCO2)cc1)c1coc(-c2ccccc2)n1 (racemic) [Example 249, (RS)—N-(4-(Morpholin-2-yl)phenyl)-2-phenyloxazole-4-carboxamide hydrochloride] |  | 0.0024 | 0.0025 | 
7 | CO[C@H]1CC[C@@H](C(=O)Nc2ccc(C3CNCCO3)cc2)CC1 (mixture of isomers) [Example 254, cis-(RS)-4-Methoxy-N-(4-(morpholin-2-yl)phenyl)cyclohexanecarboxamide hydrochloride] |  | 0.726 | 2.82 | 
8 | CO[C@H]1CC[C@H](C(=O)Nc2ccc(C3CNCCO3)cc2)CC1 (mixture of isomers) [Example 255, trans-(RS)-4-Methoxy-N-(4-(morpholin-2-yl)phenyl)cyclohexanecarboxamide hydrochloride] |  | 0.428 | 5.1 | 
9 | O=C(Nc1ccc(C2CNCCO2)cc1)c1ccc(C(F)(F)F)nc1 (racemic) [Example 272, (RS)—N-(4-(Morpholin-2-yl)phenyl)-6-(trifluoromethyl)nicotinamide hydrochloride] |  |  | 0.0214 | 0.0169
10 | Cc1cc(C(=O)Nc2ccc(C3CNCCO3)cc2)cc(Cl)n1 (racemic) [Example 273, (RS)-2-Chloro-6-methyl-N-(4-(morpholin-2-yl)phenyl)isonicotinamide hydrochloride] | 0.0343 | 0.008 |  | 
11 | Cc1cccc(C(=O)Nc2ccc(C3CNCCO3)cc2)c1 (racemic) [Example 277, (RS)-3-Methyl-N-(4-(morpholin-2-yl)phenyl)benzamide hydrochloride] | 0.0472 | 0.0036 |  | 
12 | O=C(Nc1ccc(C2CNCCO2)cc1)c1ccc(N2CCCC2)nc1 (racemic) [Example 279, (RS)—N-(4-(Morpholin-2-yl)phenyl)-6-(pyrrolidin-1-yl)nicotinamide hydrochloride] |  | 0.0044 | 0.146 | 
13 | O=C(Nc1ccc(C2CNCCO2)cc1)c1ccnc(C(F)(F)F)c1 (racemic) [Example 280, (RS)—N-(4-(Morpholin-2-yl)phenyl)-2-(trifluoromethyl)isonicotinamide hydrochloride] |  | 0.0069 | 0.0172 | 
14 | O=C(Nc1ccc(C2CNCCO2)cc1)c1csc(-c2cnccn2)n1 (racemic) [Example 288, (RS)—N-(4-(Morpholin-2-yl)phenyl)-2-(pyrazin-2-yl)thiazole-4-carboxamide hydrochloride] | 0.0278 | 0.0075 |  | 
15 | O=C(Nc1ccc(C2CNCCO2)cc1)c1csc(-c2ncccn2)n1 (racemic) [Example 290, (RS)—N-(4-(Morpholin-2-yl)phenyl)-2-(pyrimidin-2-yl)thiazole-4-carboxamide hydrochloride] |  | 0.324 | 0.0608 | 
16 | O=C(Nc1ccc(C2CNCCO2)cc1)Nc1ccc(C(F)(F)F)cc1 (racemic) [Example 291, (RS)-1-(4-(Morpholin-2-yl)phenyl)-3-(4-(trifluoromethyl)phenyl)urea hydrochloride] |  |  | 0.0012 | 0.0017
17 | O=C(Nc1ccc(Cl)cc1)Nc1ccc(C2CNCCO2)cc1 (racemic) [Example 292, (RS)-1-(4-Chlorophenyl)-3-(4-(morpholin-2-yl)phenyl)urea hydrochloride] |  | 0.001 | 0.001 | 
18 | Cc1ccc(NC(=O)Nc2ccc(C3CNCCO3)cc2)cc1 (racemic) [Example 293, (RS)-1-(4-(Morpholin-2-yl)phenyl)-3-p-tolylurea hydrochloride] |  | 0.0014 | 0.0074 | 
19 | Cc1cc(C(=O)Nc2ccc(C3CNCCO3)cc2)ccn1 (racemic) [Example 294, (RS)-2-Methyl-N-(4-(morpholin-2-yl)phenyl)isonicotinamide dihydrochloride] |  | 0.0226 | 1.18 | 
20 | Cc1cc(C(=O)Nc2ccc(C3CNCCO3)cc2)cc(C)n1 (racemic) [Example 295, (RS)-2,6-Dimethyl-N-(4-(morpholin-2-yl)phenyl)isonicotinamide dihydrochloride] |  | 1.2 | 0.235 | 
21 | Cn1cc(-c2nc(C(=O)Nc3ccc(C4CNCCO4)cc3)cs2)cn1 (racemic) [Example 296, (RS)-2-(1-Methyl-1H-pyrazol-4-yl)-N-(4-(morpholin-2-yl)phenyl)thiazole-4-carboxamide hydrochloride] |  | 0.0847 | 0.0645 | 
22 | Cc1nc(-c2cnccn2)sc1C(=O)Nc1ccc(C2CNCCO2)cc1 (racemic) [Example 298, (RS)-4-Methyl-N-(4-(morpholin-2-yl)phenyl)-2-(pyrazin-2-yl)thiazole-5-carboxamide hydrochloride] | 0.0506 | 0.0143 |  | 
23 | O=C(Nc1ccc(C2CNCCO2)cc1)c1ccn(-c2ccccc2)n1 (racemic) [Example 299, (RS)—N-(4-(Morpholin-2-yl)phenyl)-1-phenyl-1H-pyrazole-3-carboxamide hydrochloride] |  | 0.0014 | 0.0022 | 
24 | CCOc1cc(C(=O)Nc2ccc(C3CNCCO3)cc2)ccn1 (racemic) [Example 300, (RS)-2-Ethoxy-N-(4-(morpholin-2-yl)phenyl)isonicotinamide hydrochloride] |  | 0.002 | 0.0726 | 
25 | O=C(Nc1ccc(C2CNCCO2)cc1)Nc1ccc(Cl)nc1 (racemic) [Example 302, (RS)-1-(6-Chloropyridin-3-yl)-3-(4-(morpholin-2-yl)phenyl)urea hydrochloride] |  | 0.0056 | 0.0574 | 
26 | O=C(Nc1ccc(C2CNCCO2)cc1)Nc1cccc(Cl)c1 (racemic) [Example 303, (RS)-1-(3-Chlorophenyl)-3-(4-(morpholin-2-yl)phenyl)urea hydrochloride] |  | 0.0005 | 0.002 | 
27 | Cc1cccc(NC(=O)Nc2ccc(C3CNCCO3)cc2)c1 (racemic) [Example 304, (RS)-1-(4-(Morpholin-2-yl)phenyl)-3-m-tolylurea hydrochloride] |  | 0.0012 | 0.0071 | 
28 | O=C(Nc1ccc(C2CNCCO2)cc1)Nc1ccccc1Cl (racemic) [Example 305, (RS)-1-(2-Chlorophenyl)-3-(4-(morpholin-2-yl)phenyl)urea hydrochloride] |  |  | 0.0266 | 0.0038

Reference: patent publication US9452980B2, “Substituted benzamides” (Hoffmann-La Roche Inc., priority 2009, dated 2016)
